Test results taken from patent US20240109881A1, “Heteroaryl Compounds as Ligand Directed Degraders of IRAK4” (Bristol-Myers Squibb Company, priority 2022, published 2024).

The compounds below were run against T1, IRAK4 (Homo sapiens, UniProt Q9NWZ3) (assay: ALE THP1 HTRF (Advanced Lipoxidation End Product THP1 Homogeneous Time Resolved Fluorescence)). Settings: THP1 cells.
T1 construct: endogenous in cells; host or cells: THP-1 cells
T1 sequence (Q9NWZ3 1-460): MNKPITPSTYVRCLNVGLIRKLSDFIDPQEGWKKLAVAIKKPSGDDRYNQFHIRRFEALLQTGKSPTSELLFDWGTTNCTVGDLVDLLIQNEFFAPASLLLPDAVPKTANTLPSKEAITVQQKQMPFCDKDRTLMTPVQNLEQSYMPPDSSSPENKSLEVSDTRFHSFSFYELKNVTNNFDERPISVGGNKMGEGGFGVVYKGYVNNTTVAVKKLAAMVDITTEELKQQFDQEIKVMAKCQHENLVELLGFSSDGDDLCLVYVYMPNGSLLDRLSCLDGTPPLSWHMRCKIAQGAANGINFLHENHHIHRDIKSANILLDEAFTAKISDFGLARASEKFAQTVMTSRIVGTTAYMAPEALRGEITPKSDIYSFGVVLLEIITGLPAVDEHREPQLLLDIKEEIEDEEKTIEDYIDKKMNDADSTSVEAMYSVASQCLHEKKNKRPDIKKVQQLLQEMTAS
Format: cell-based
Procedure, shortened: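 Cells lysed 45 min at room temperature; lysates normalized to total protein by BCA. Total IRAK4 detected by HTRF sandwich (anti-IRAK4-d2 plus anti-IRAK4-cryptate), incubated overnight in the dark at room temperature, read on a time-resolved fluorescence plate reader.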

SMILES | ALE THP1 HTRF YMIN [%] | EC50 [nM]
N#Cc1cnc2c(cnn2-c2cc(NCC(F)(F)F)c(C(=O)N[C@H]3CC[C@H](CCN4CCN(c5ccc(C6CCC(=O)NC6=O)cc5)CC4)CC3)cn2)c1 (stereo partly drawn) [P-112] | 8.7 | 23
CC(C)(C#N)Nc1cc(-n2ncc3cc(C#N)cnc32)ncc1C(=O)N[C@H]1CC[C@H](CCN2CCN(c3ccc(C4CCC(=O)NC4=O)cc3)CC2)CC1 (stereo partly drawn) [P-115] | 38.9 | > 5000
C[C@H]1CN(c2ccc(C3CCC(=O)NC3=O)cc2)C[C@H](C)N1CC[C@H]1CC[C@H](NC(=O)c2cnc(-n3ncc4cc(C#N)cnc43)cc2NC2CC2)CC1 (stereo partly drawn) [P-116] | 8.3 | 7
N#Cc1cnc2c(cnn2-c2cc(NCCC(F)(F)F)c(C(=O)N[C@H]3CC[C@H](CCN4CCN(c5ccc(C6CCC(=O)NC6=O)cc5)CC4)CC3)cn2)c1 (stereo partly drawn) [P-118] | 9.9 | 34
C[C@@H]1CN(CC[C@H]2CC[C@H](NC(=O)c3cnc(-n4ncc5cc(C#N)cnc54)cc3NC3CC3)CC2)CCN1c1ccc(C2CCC(=O)NC2=O)cc1 (stereo partly drawn) [P-120] | 7.2 | 15
C[C@H]1CN(CC[C@H]2CC[C@H](NC(=O)c3cnc(-n4ncc5cc(C#N)cnc54)cc3NC3CC3)CC2)CCN1c1ccc(C2CCC(=O)NC2=O)cc1 (stereo partly drawn) [P-121] | 11.0 | 13
N#Cc1cnc2c(cnn2-c2cc(NC3(C#N)CC3)c(C(=O)N[C@H]3CC[C@H](CCN4CCN(c5ccc(C6CCC(=O)NC6=O)cc5)CC4)CC3)cn2)c1 (stereo partly drawn) [P-122] | 10.4 | 80
N#Cc1cnn2c(-c3cc(NC4CC4)c(C(=O)N[C@H]4CC[C@H](CCN5CCN(c6ccc(C7CCC(=O)NC7=O)cc6)CC5)CC4)cn3)cnc2c1 (stereo partly drawn) [P-123] | 24.4 | 62
N#Cc1cnc2c(cnn2-c2cc(NC3CC3)c(C(=O)N[C@H]3CC[C@H](CCN4CC5(C4)CN(c4ccc(C6CCC(=O)NC6=O)cc4)C5)CC3)cn2)c1 (stereo partly drawn) [P-124] | 19.2 | 46
CN(C[C@H]1CC[C@H](NC(=O)c2cnc(-n3ncc4cc(C#N)cnc43)cc2NC2CC2)CC1)C1CCN(c2ccc3c(c2)CN(C2CCC(=O)NC2=O)C3=O)CC1 (stereo partly drawn) [P-127] | 24.5 | 8
N#Cc1cnc2c(cnn2-c2cc(NC3CC3)c(C(=O)N[C@H]3CC[C@H](C(=O)NC4CCN(c5ccc6c(c5)CN(C5CCC(=O)NC5=O)C6=O)CC4)CC3)cn2)c1 (stereo partly drawn) [P-129] | 24.2 | 47
N#Cc1cnc2c(cnn2-c2cc(NC3CC3)c(C(=O)N[C@H]3CC[C@H](CN4CCC5(CCN(c6ccc7c(c6)CN(C6CCC(=O)NC6=O)C7=O)CC5)C4)CC3)cn2)c1 (stereo partly drawn) [P-130] | 20.0 | 15
CC(C)Nc1cc(Nc2ccc(C#N)cc2Cl)ncc1C(=O)N[C@H]1CC[C@H](CCN2CCN(c3ccc(C4CCC(=O)NC4=O)cc3)CC2)CC1 (stereo partly drawn) [P-134] | 20.9 | 94
C[C@H](C#N)Nc1cc(-n2ncc3cc(C#N)cnc32)ncc1C(=O)N[C@H]1CC[C@H](CCN2CCN(c3ccc(C4(C)CCC(=O)NC4=O)cc3)CC2)CC1 (stereo partly drawn) [P-136] | 7.4 | 6
CCNc1cc(Nc2ccc3ncc(F)cc3n2)ncc1C(=O)N[C@H]1CC[C@H](CCN2CCN(c3ccc(C4CCC(=O)NC4=O)cc3)CC2)CC1 (stereo partly drawn) [P-138] | 42.1 | 1280
CC1(Nc2cc(-n3ncc4cc(C#N)cnc43)ncc2-n2cc([C@H]3CC[C@H](CCN4CCN(c5ccc(C6CCC(=O)NC6=O)cc5)CC4)CC3)nn2)CC1 (stereo partly drawn) [P-140] | 6.4 | 30
O=C1CCC(c2ccc(N3CCN(CC[C@H]4CC[C@H](NC(=O)c5cnc(Nc6ccc7[nH]c(=O)sc7c6)cc5NC5CC5)CC4)CC3)cc2)C(=O)N1 (stereo partly drawn) [P-141] | 6.1 | < 1
C[C@H](C#N)Nc1cc(-n2ncc3cc(C#N)cnc32)ncc1C(=O)N[C@H]1CC[C@H](CCN2CCC(c3ccc(C4CCC(=O)NC4=O)cc3)CC2)CC1 (stereo partly drawn) [P-143] | 6.5 | 4
C[C@H](C#N)Nc1cc(-n2cc(F)c3cc(C#N)cnc32)ncc1C(=O)N[C@H]1CC[C@H](CCN2CCN(c3ccc(C4CCC(=O)NC4=O)cc3)CC2)CC1 (stereo partly drawn) [P-145] | 11.0 | 35
C[C@H](C#N)Nc1cc(-c2cnc3cc(C#N)cnn23)ncc1C(=O)N[C@H]1CC[C@H](CCN2CCN(c3ccc(C4CCC(=O)NC4=O)cc3)CC2)CC1 (stereo partly drawn) [P-147] | 9.0 | 19
C[C@H](C#N)Nc1cc(-c2cnc3cc(C#N)cnn23)ncc1C(=O)N[C@H]1CC[C@H](CCN2CCC(c3ccc(C4CCC(=O)NC4=O)cc3)CC2)CC1 (stereo partly drawn) [P-148] | 11.0 | 16
C[C@H](C#N)Nc1cc(-n2ncc3cc(C#N)cnc32)ncc1C(=O)N[C@H]1CC[C@H](CCN2[C@@H](C)CN(c3ccc(C4CCC(=O)NC4=O)cc3)C[C@@H]2C)CC1 (stereo partly drawn) [P-149] | 7.1 | 4

Other lines, results leading:

ALE THP1 HTRF YMIN [%] | EC50 [nM] | SMILES
18.7 | 74 | N#Cc1cnc2c(cnn2-c2cc(NCC3CCCO3)c(C(=O)N[C@H]3CC[C@H](CCN4CCN(c5ccc(C6CCC(=O)NC6=O)cc5)CC4)CC3)cn2)c1 (stereo partly drawn) [P-113]
46.1 | > 5000 | O=C1CCC(c2ccc(N3CCN(CC[C@H]4CC[C@H](NC(=O)c5cnc(-n6ncc7cc(Cl)cnc76)cc5NC5CC5)CC4)CC3)cc2)C(=O)N1 (stereo partly drawn) [P-114]
13.6 | 33 | O=C1CCC(c2ccc(N3CCN(CC[C@H]4CC[C@H](NC(=O)c5cnc(-n6ncc7cncnc76)cc5NC5CC5)CC4)CC3)cc2)C(=O)N1 (stereo partly drawn) [P-117]
8.3 | 25 | CCC1(Nc2cc(-n3ncc4cc(C#N)cnc43)ncc2C(=O)N[C@H]2CC[C@H](CCN3CCN(c4ccc(C5CCC(=O)NC5=O)cc4)CC3)CC2)CC1 (stereo partly drawn) [P-119]
5.3 | 3 | N#Cc1cc2cnn(-c3cc(NC4CC4)c(C(=O)N[C@H]4CC[C@H](CCN5CCN(c6ccc(C7CCC(=O)NC7=O)cc6)CC5)CC4)cn3)c2nc1N (stereo partly drawn) [P-131]
7.9 | 13 | CS(=O)(=O)N1CCC(Nc2cc(-n3ncc4cc(C#N)cnc43)ncc2C(=O)N[C@H]2CC[C@H](CCN3CCN(c4ccc(C5CCC(=O)NC5=O)cc4)CC3)CC2)CC1 (stereo partly drawn) [P-132]
6.9 | 10 | CS(=O)(=O)N1CCC(Nc2cc(-n3ncc4cc(C#N)c(N)nc43)ncc2C(=O)N[C@H]2CC[C@H](CCN3CCN(c4ccc(C5CCC(=O)NC5=O)cc4)CC3)CC2)CC1 (stereo partly drawn) [P-133]
7.3 | 1 | C[C@H](C#N)Nc1cc(-n2ncc3cc(C#N)c(N)nc32)ncc1C(=O)N[C@H]1CC[C@H](CCN2CCN(c3ccc(C4CCC(=O)NC4=O)cc3)CC2)CC1 (stereo partly drawn) [P-135]
7.7 | 18 | N#Cc1cnc2c(cnn2-c2cc(NC3CCC(C(N)=O)CC3)c(C(=O)N[C@H]3CC[C@H](CCN4CCN(c5ccc(C6CCC(=O)NC6=O)cc5)CC4)CC3)cn2)c1 (stereo partly drawn) [P-137]
9.7 | 46 | C[C@H](C#N)Nc1cc(-n2ncc3cc(C#N)c(N)nc32)ncc1C(=O)N[C@H]1CC[C@H](CCN2CCN(c3ccc(C4CCC(=O)NC4=O)cc3)[C@H](C)C2)CC1 (stereo partly drawn) [P-142]
8.0 | 1 | C[C@H](C#N)Nc1cc(-n2ncc3cc(C#N)c(N)nc32)ncc1C(=O)N[C@H]1CC[C@H](CCN2CCC(c3ccc(C4CCC(=O)NC4=O)cc3)CC2)CC1 (stereo partly drawn) [P-146]
